The values below come from publication PMC3711802 (IUBMB life, 2012).

Where two headings read alike, the source gives them in different places.

Test [1] concerns EGFR. Conditions: cited from earlier work.
Test [2] relates to A431 subcutaneous xenografts. The test can be described thus: Treatment of subcutaneous A431 xenografts in nude mice. The conditions noted are these: EGFR over-expressing cancers. It counts as in vivo, human.
The target in test [3] is EGFR (Homo sapiens, UniProt P00533). The test can be described thus: Displacement of bound [^125I]-EGF in A431 cells. It counts as binding.
Another test concerns EGFR expressing cells. The conditions noted are these: in vitro and in vivo, cited from earlier work.
The subject of test [4] is EGFR. Conditions: ref [8] Li et al., cited from earlier work.

Turning to “EGF: Recombinant human EGF (hEGF, Peprotech Asia)”, in the test on EGFR [1] (ref [20]), the “EGFR activation upon binding” value was “activates the kinase moiety of the receptor”.
In the case of “Polyethyleneimine-polyetheleneglycol-EGF [PP-EGF]”, the “in vitro and in vivo efficacy of both vectors in PolyIC treatment” value in test [2] is “in vitro and in vivo efficacies of both vectors are comparable”. In addition, the “enhancement of potency by complexation with PolyIC” value on EGFR [3] ([^125I]-EGF displacement, PolyIC complex vs uncomplexed conjugate) is “approximately 10 fold”.
As to “Polyethyleneimine-polyetheleneglycol-GE11 [PPGE11]”, the “in vitro and in vivo efficacy of both vectors in PolyIC treatment” value in test [2] is “in vitro and in vivo efficacies of both vectors are comparable”. Also, in the test on EGFR expressing cells (ref [9],[10],[16]), the “gene delivery into EGFR expressing cells” value is “effective and specific gene delivery into EGFR expressing cells”. Further, in the test on EGFR expressing cells (ref [9],[10]), the “targeting of EGFR over-expressing tumors” value is “enabled the targeting of EGFR over-expressing tumors in vitro and in vivo”. At EGFR [3] (vs free GE11), the “EGFR-binding affinity/inhibitory potency compared to GE11” value was “much more potent EGFR binder as compared to GE11”.
YHWYGYTPQNVI [GE11]: the EGFR activation entry is given as “does not activate the receptor” in the test on EGFR [1] (as previously shown by us, ref [9],[10]); “does not activate the EGFR” in the test on EGFR [1] (ref [8]); “without EGFR activation” in the test on EGFR [1] (ref [9],[10]). The “affinity to the EGFR (in words)” value in the test on EGFR [4] (as a free ligand) was “high affinity”. In addition, in the test on EGFR [4] (free ligand), the “affinity to the EGFR” value is reported as ~ 22 nM.
